From ChEMBL document CHEMBL1132671, “The synthesis of a new class of oxytocin antagonists” (Bioorg Med Chem Lett, 1999)
The source made the active and inactive calls. The calls are words filed in the database; no cut-off is given here.

Key:
[1] = organism: Rattus norvegicus; assay: Dose inhibiting the response of a dose of oxytocin to half of the response in rat; type: functional; details: for ED50: Rattus norvegicus, read-out: ID50 (the source's name)
[2] = target: T1, Oxytocin receptor (Homo sapiens, UniProt P30559); assay: […] antagonistic activity against cloned human oxytocin receptor over-expressed in a stable HEK293 cell line; type: functional
T1 sequence (P30559 whole entry): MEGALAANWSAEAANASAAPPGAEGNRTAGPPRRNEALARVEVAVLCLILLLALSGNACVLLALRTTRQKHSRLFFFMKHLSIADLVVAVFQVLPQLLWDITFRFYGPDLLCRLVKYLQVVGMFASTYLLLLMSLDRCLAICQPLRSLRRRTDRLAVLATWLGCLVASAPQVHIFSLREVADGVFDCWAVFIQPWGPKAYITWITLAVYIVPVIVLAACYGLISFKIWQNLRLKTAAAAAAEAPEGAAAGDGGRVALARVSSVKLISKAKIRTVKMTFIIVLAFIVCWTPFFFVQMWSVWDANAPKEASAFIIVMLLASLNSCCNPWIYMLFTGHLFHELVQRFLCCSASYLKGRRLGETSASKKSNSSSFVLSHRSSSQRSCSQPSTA

[3] = organism: Rattus norvegicus; assay: Dose inhibiting the response of a dose of oxytocin to half of the response in rat;NA means no activity.; type: functional, organism-based

| Ki [2] | Compound | ID50 [1] | ED50 [1] | ID50 [3] |
| --- | --- | --- | --- | --- |
| 4 nM | CC[C@@H](C)[C@@H]1NC(=O)[C@H]([C@@H](C)CC)NC(=O)[C@@H](Cc2c[nH]c3ccccc23)NC(=O)CCCSC[C@H](CCCN)NC(=O)[C@H](CC(N)=O)NC1=O | 5.4 nmol/kg | – | – |
| 26 nM | CC[C@@H](C)[C@@H]1NC(=O)[C@H]([C@@H](C)CC)NC(=O)[C@@H](Cc2c[nH]c3ccccc23)NC(=O)CCCSCC(CCCN)NC(=O)[C@H](CC(N)=O)NC1=O (single isomer, unassigned) | 32 nmol/kg | – | – |
| – | CC[C@@H](C)[C@@H]1NC(=O)[C@H]([C@@H](C)CC)NC(=O)[C@@H](Cc2c[nH]c3ccccc23)NC(=O)CCSCC[C@@H](C(N)=O)NC(=O)[C@H](CC(N)=O)NC1=O | – | 0.048 µmol/kg | – |
| – | CC[C@@H](C)[C@@H]1NC(=O)[C@H]([C@@H](C)CC)NC(=O)[C@@H](Cc2c[nH]c3ccccc23)NC(=O)CCSCC[C@@H](C(=O)N(C)[C@@H](CCCN)C(N)=O)NC(=O)[C@H](CC(N)=O)NC1=O | – | 0.0029 µmol/kg | – |
| 1000 nM | CC[C@@H](C)[C@@H]1NC(=O)[C@H]([C@@H](C)CC)NC(=O)[C@@H](Cc2c[nH]c3ccccc23)NC(=O)CCCSCC2CCCN2C(=O)[C@H](CC(N)=O)NC1=O (single isomer, unassigned) | – | – | inactive |
| 2.8 nM | CC[C@@H](C)[C@@H]1NC(=O)[C@H]([C@@H](C)CC)NC(=O)[C@@H](Cc2c[nH]c3ccccc23)NC(=O)CCCSCC(CCCCN)NC(=O)[C@H](CC(N)=O)NC1=O (single isomer, unassigned) | – | 0.017 µmol/kg | – |
